Test results published in ChEMBL document CHEMBL1201862, “PubChem BioAssay data set” (2004).
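Protocol summary: plate cells (96-well), add compound at 5 concentrations, incubate 48 h, interpolate endpoints linearly. GI50 marks 50% less growth.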 Active and inactive are the calls of the source. Rule as the data show it: active = GI50 up to about 1.1 µM and inactive = higher. Where a SMILES comes first, the peptide text is derived from it. The star is where a group is joined. Cbz = O=C(OCc1ccccc1)*; NHNH2 = NN*

What was measured:
Experiment in all cases: inhibition of tumour cell growth, NCI panel, 48 h
[1] = system: 786-0
[2] = system: A498
[3] = system: HCC 2998
[4] = system: HCT-116
[5] = system: HL-60
[6] = system: HT-29
[7] = system: IGROV-1
[8] = system: KM12
[9] = system: M14
[10] = system: Malme-3M
[11] = system: NCI-H460
[12] = system: OVCAR-5
[13] = system: OVCAR-8
[14] = system: PC-3
[15] = system: RPMI-8226
[16] = system: SK-MEL-2
[17] = system: SK-MEL-5
[18] = system: SNB-19
[19] = system: SNB-75
[20] = system: TK-10

Measured: GI50

NS(=O)(=O)c1cc(C(=O)O)c(Cl)c([N+](=O)[O-])c1Cl
inactive: [1] > 100 µM | [2] > 100 µM | [3] > 100 µM | [4] > 100 µM | [5] > 100 µM | [6] > 100 µM | [7] > 100 µM | [8] > 100 µM | [9] > 100 µM | [10] > 100 µM | [11] > 100 µM | [12] > 100 µM | [13] > 100 µM | [14] > 100 µM | [15] > 100 µM | [16] > 100 µM | [17] > 100 µM | [18] > 100 µM | [19] > 100 µM | [20] > 100 µM

C#C[C@]1(O)CC[C@H]2[C@@H]3CCC4=C/C(=N\OCCN5CCCCC5)CC[C@]4(C)[C@H]3CC[C@@]21C
inactive: [1] 3.63 µM | [2] 6.15 µM | [3] 12.8 µM | [4] 4.31 µM | [5] 3.19 µM | [6] 6.67 µM | [7] 7.18 µM | [8] 3.44 µM | [9] 3.27 µM | [10] 8.79 µM | [11] 6.78 µM | [12] 13.5 µM | [13] 8.02 µM | [14] 3.39 µM | [15] 2.43 µM | [16] 2.77 µM | [17] 2.23 µM | [18] 6.9 µM | [19] 4.3 µM | [20] 7.28 µM

COc1ccccc1C(=O)Nc1ccc(Cl)c(C(=O)OC(C)C)c1
inactive: [1] 38 µM | [2] > 50.9 µM | [3] > 63.7 µM | [4] 39.1 µM | [5] > 41.1 µM | [6] 27.4 µM | [7] > 66.8 µM | [8] 25.9 µM | [9] > 54.6 µM | [10] 4.45 µM | [11] 37.4 µM | [12] > 50 µM | [13] > 63 µM | [14] 83.2 µM | [15] 18.3 µM | [16] 31.8 µM | [17] 31.8 µM | [18] > 65.3 µM | [19] 35.4 µM | [20] > 80 µM

CC1CN=C(Nc2ccc(F)c(Cl)c2)S1 (stereo not given)
inactive: [1] > 100 µM | [2] 62.8 µM | [3] > 100 µM | [4] 71 µM | [5] 29.9 µM | [6] > 100 µM | [7] 81.7 µM | [8] > 100 µM | [9] > 100 µM | [10] > 100 µM | [11] > 100 µM | [12] > 100 µM | [13] > 100 µM | [14] 72.4 µM | [15] 39.3 µM | [16] > 100 µM | [17] 58.5 µM | [18] > 100 µM | [19] > 100 µM | [20] > 100 µM

C=CCOC1=C(OC(C)=O)C(C2COC(C)(C)O2)OC1=O (stereo not given)
inactive: [1] 18.7 µM | [2] > 100 µM | [3] 38.2 µM | [4] 17.6 µM | [5] 19.6 µM | [6] 19.9 µM | [7] 31.6 µM | [8] 20.7 µM | [9] 21.2 µM | [10] 18.8 µM | [11] 22 µM | [12] 17.5 µM | [13] 38.8 µM | [14] 70 µM | [15] 22.1 µM | [16] 35.6 µM | [17] 16.9 µM | [18] > 100 µM | [19] 71.3 µM | [20] 29.7 µM

O=C(N/C(=C\c1ccccc1)C1Nc2ccccc2C(=O)O1)c1ccccc1 (stereo not given)
inactive: [1] 24.5 µM | [2] > 100 µM | [3] 19.8 µM | [4] 18.3 µM | [5] 12.4 µM | [6] 32.7 µM | [7] 34.3 µM | [8] 15.8 µM | [9] 20.2 µM | [10] 16.6 µM | [11] 16.6 µM | [12] > 100 µM | [13] 21.4 µM | [14] > 100 µM | [15] 23.3 µM | [16] 22.5 µM | [17] 19.6 µM | [18] 33.8 µM | [19] 38.8 µM | [20] > 100 µM

COc1ccc(OC)c2sc(N3C(=O)/C(=C/c4cccc([N+](=O)[O-])c4)N=C3c3ccccc3)nc12
inactive: [1] 49.7 µM | [2] 57.8 µM | [3] 45.5 µM | [4] > 100 µM | [5] 20.8 µM | [6] > 100 µM | [7] 43.4 µM | [8] 42.2 µM | [9] > 100 µM | [10] > 100 µM | [11] 77.1 µM | [12] > 100 µM | [13] 28.5 µM | [14] 59.7 µM | [15] 22.5 µM | [16] 69 µM | [17] 49.4 µM | [18] > 100 µM | [19] 42.7 µM | [20] 74 µM

CCOC(=O)CCC(NC(=O)OCc1ccccc1)C(=O)NC(CCC(=O)OCC)C(=O)NN (stereo not given) (Cbz-Glu(OEt)-Glu(OEt)-NHNH2; configuration not given here)
inactive: [1] > 100 µM | [2] > 100 µM | [3] > 100 µM | [4] > 100 µM | [5] > 100 µM | [6] > 100 µM | [7] > 100 µM | [8] > 100 µM | [9] > 100 µM | [10] > 100 µM | [11] > 100 µM | [12] > 100 µM | [13] > 100 µM | [14] > 100 µM | [15] > 100 µM | [16] > 100 µM | [17] > 100 µM | [18] > 100 µM | [19] > 100 µM | [20] > 100 µM

COC(=O)c1c(C)[nH]c2c1cc(O)c1nc(C)c(C)nc12
inactive: [1] > 100 µM | [2] 14.8 µM | [3] > 100 µM | [4] 42.2 µM | [5] 5.77 µM | [6] > 100 µM | [7] > 100 µM | [8] > 100 µM | [9] > 100 µM | [10] > 100 µM | [11] > 100 µM | [12] 76.7 µM | [13] > 100 µM | [14] 23.2 µM | [15] > 100 µM | [16] 33 µM | [17] 48.5 µM | [18] > 100 µM | [19] 19.5 µM | [20] 29.2 µM

CCOC(=O)c1c(-c2ccc(Br)cc2)ccn1C
inactive: [1] > 10 µM | [2] > 10 µM | [3] > 10 µM | [4] > 10 µM | [5] > 10 µM | [6] > 10 µM | [7] > 10 µM | [8] > 10 µM | [9] > 10 µM | [10] > 10 µM | [11] > 10 µM | [12] > 10 µM | [13] > 10 µM | [14] > 10 µM | [15] > 10 µM | [16] > 10 µM | [17] > 10 µM | [18] > 10 µM | [19] > 10 µM | [20] > 10 µM
